Source: PubChem BioAssay AID1963968 (Molecular Pharmacology Branch, DTP, NCI, 2024)

Tested on: 945468-187-T-J3-PDC spheroids with HUVEC/MSC, viability
Assay: Anticancer human tumor 945468-187-T-J3-PDC patient-derived rectal carcinoma cell line growth inhibition [PI3K]
Conditions: for IC50: curve of first compound; for viability, T/C: stronger effect = lower value
Summary of the method: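 Tumor cells were combined with HUVEC and MSCs into spheroids, then dosed with PI3K-inhibitor combinations over half-log ranges capped near clinical Cmax or 10 microM.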
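Further: spheroids exposed to agents for 7 days before viability read.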
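Wherever viability, T/C is given: 100% = DMSO vehicle control viability.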

With `CC1(C)CCC(Nc2ncc(C(F)(F)F)c(-c3c[nH]c4c(P(C)(C)=O)c(C#N)ccc34)n2)CN1` (centres undefined) + CC(Nc1ccc2c(c1)OCCn1cc(N3C(=O)OCC3C(F)F)nc1-2)C(N)=O the IC50 (second compound 0.00316 µM) was 5.65 µM, the IC50 (second compound 0.01 µM) was 5.69 µM and the IC50 (second compound 0.0316 µM) was 5.24 µM. The IC50 (second compound 0.1 µM) was 5.3 µM, the IC50 (second compound 0.316 µM) was 3.77 µM and the IC50 (second compound 1 µM) was 1.99 µM. For the same molecule, the viability, T/C (second compound 0.00316 µM, first compound 0.0316 µM) was 83.5%, the viability, T/C (second compound 0.00316 µM, first compound 0.1 µM) was 85.8% and the viability, T/C (second compound 0.00316 µM, first compound 0.316 µM) was 69.1%. It also gave a viability, T/C (second compound 0.00316 µM, first compound 1 µM) of 85.8%, a viability, T/C (second compound 0.00316 µM, first compound 3.16 µM) of 86.1% and a viability, T/C (second compound 0.00316 µM, first compound 10 µM) of 18.5%. The viability, T/C (second compound 0.01 µM, first compound 0.0316 µM) was 83.8%, the viability, T/C (second compound 0.01 µM, first compound 0.1 µM) was 83.5% and the viability, T/C (second compound 0.01 µM, first compound 0.316 µM) was 72.3%. The viability, T/C (second compound 0.01 µM, first compound 1 µM) was 94.7%, the viability, T/C (second compound 0.01 µM, first compound 3.16 µM) was 96.6% and the viability, T/C (second compound 0.01 µM, first compound 10 µM) was 15.1%. For the same molecule, the viability, T/C (second compound 0.0316 µM, first compound 0.0316 µM) was 82.9%, the viability, T/C (second compound 0.0316 µM, first compound 0.1 µM) was 77.4% and the viability, T/C (second compound 0.0316 µM, first compound 0.316 µM) was 71.2%. It also gave a viability, T/C (second compound 0.0316 µM, first compound 1 µM) of 79.8%, a viability, T/C (second compound 0.0316 µM, first compound 3.16 µM) of 87.3% and a viability, T/C (second compound 0.0316 µM, first compound 10 µM) of 11.8%. It also gave a viability, T/C (second compound 0.1 µM, first compound 0.0316 µM) of 86.1%, a viability, T/C (second compound 0.1 µM, first compound 0.1 µM) of 88.6% and a viability, T/C (second compound 0.1 µM, first compound 0.316 µM) of 70.8%. The viability, T/C (second compound 0.1 µM, first compound 1 µM) was 77.6%, the viability, T/C (second compound 0.1 µM, first compound 3.16 µM) was 82% and the viability, T/C (second compound 0.1 µM, first compound 10 µM) was 11.9%. For the same molecule, the viability, T/C (second compound 0.316 µM, first compound 0.0316 µM) was 82.4%, the viability, T/C (second compound 0.316 µM, first compound 0.1 µM) was 79.2% and the viability, T/C (second compound 0.316 µM, first compound 0.316 µM) was 80.7%. It also gave a viability, T/C (second compound 0.316 µM, first compound 1 µM) of 61.4%, a viability, T/C (second compound 0.316 µM, first compound 3.16 µM) of 63.2% and a viability, T/C (second compound 0.316 µM, first compound 10 µM) of 8.03%. For the same molecule, the viability, T/C (second compound 1 µM, first compound 0.0316 µM) was 80.7%, the viability, T/C (second compound 1 µM, first compound 0.1 µM) was 62.4% and the viability, T/C (second compound 1 µM, first compound 0.316 µM) was 62%. It also gave a viability, T/C (second compound 1 µM, first compound 1 µM) of 51.6%, a viability, T/C (second compound 1 µM, first compound 3.16 µM) of 52.2% and a viability, T/C (second compound 1 µM, first compound 10 µM) of 4.39%.

In the case of `Cn1cnc2c(F)c(Nc3ccc(Br)cc3Cl)c(C(=O)NOCCO)cc21` + CC(Nc1ncnc2nc[nH]c12)c1cc2cccc(Cl)c2c(=O)n1-c1ccccc1, the IC50 (second compound 0.0316 µM) is reported as > 3 µM, the IC50 (second compound 0.1 µM) is reported as > 3 µM and the IC50 (second compound 0.316 µM) is reported as > 3 µM. For the same molecule, the IC50 (second compound 1 µM) was > 3 µM, the IC50 (second compound 3.16 µM) was > 3 µM and the IC50 (second compound 10 µM) was > 3 µM. It also gave a viability, T/C (second compound 0.0316 µM, first compound 0.00949 µM) of 106%, a viability, T/C (second compound 0.0316 µM, first compound 0.03 µM) of 103% and a viability, T/C (second compound 0.0316 µM, first compound 0.0949 µM) of 116%. For the same molecule, the viability, T/C (second compound 0.0316 µM, first compound 0.3 µM) was 115%, the viability, T/C (second compound 0.0316 µM, first compound 0.949 µM) was 104% and the viability, T/C (second compound 0.0316 µM, first compound 3 µM) was 87.2%. The viability, T/C (second compound 0.1 µM, first compound 0.00949 µM) was 96%, the viability, T/C (second compound 0.1 µM, first compound 0.03 µM) was 98% and the viability, T/C (second compound 0.1 µM, first compound 0.0949 µM) was 109%. The viability, T/C (second compound 0.1 µM, first compound 0.3 µM) was 104%, the viability, T/C (second compound 0.1 µM, first compound 0.949 µM) was 101% and the viability, T/C (second compound 0.1 µM, first compound 3 µM) was 95.6%. It also gave a viability, T/C (second compound 0.316 µM, first compound 0.00949 µM) of 100%, a viability, T/C (second compound 0.316 µM, first compound 0.03 µM) of 104% and a viability, T/C (second compound 0.316 µM, first compound 0.0949 µM) of 108%. For the same molecule, the viability, T/C (second compound 0.316 µM, first compound 0.3 µM) was 111%, the viability, T/C (second compound 0.316 µM, first compound 0.949 µM) was 112% and the viability, T/C (second compound 0.316 µM, first compound 3 µM) was 89%. The viability, T/C (second compound 1 µM, first compound 0.00949 µM) was 97.2%, the viability, T/C (second compound 1 µM, first compound 0.03 µM) was 99.6% and the viability, T/C (second compound 1 µM, first compound 0.0949 µM) was 110%. For the same molecule, the viability, T/C (second compound 1 µM, first compound 0.3 µM) was 103%, the viability, T/C (second compound 1 µM, first compound 0.949 µM) was 106% and the viability, T/C (second compound 1 µM, first compound 3 µM) was 84.1%. For the same molecule, the viability, T/C (second compound 3.16 µM, first compound 0.00949 µM) was 94.5%, the viability, T/C (second compound 3.16 µM, first compound 0.03 µM) was 119% and the viability, T/C (second compound 3.16 µM, first compound 0.0949 µM) was 105%. It also gave a viability, T/C (second compound 3.16 µM, first compound 0.3 µM) of 107%, a viability, T/C (second compound 3.16 µM, first compound 0.949 µM) of 102% and a viability, T/C (second compound 3.16 µM, first compound 3 µM) of 73.8%. The viability, T/C (second compound 10 µM, first compound 0.00949 µM) was 101%, the viability, T/C (second compound 10 µM, first compound 0.03 µM) was 98.8% and the viability, T/C (second compound 10 µM, first compound 0.0949 µM) was 97.2%. The viability, T/C (second compound 10 µM, first compound 0.3 µM) was 98.4%, the viability, T/C (second compound 10 µM, first compound 0.949 µM) was 93.7% and the viability, T/C (second compound 10 µM, first compound 3 µM) was 60.6%.
